Reference: patent US8415384B2, “Reducing myocardial reperfusion injury by the combination therapy of protein kinase A activation and B1-adrenergic receptor blockade” (The Board of Regents of the University of Texas System, priority 2008, dated 2013)
Where two headings read alike, the source gives them in different places. Where no end group is shown, it is not given here.

Experiments:
[1] = system: rat myocardial ischemia-reperfusion model; test: rat myocardial ischemia-reperfusion model (30-min coronary occlusion, 4-hr reperfusion), infarct size; type: in vivo; settings: for increase of infarct size (IS): pre-ischemic infusion (10-min), ICI-118551 100 μg/kg/min, CGRP8-37 3 ng/kg/min, n=8/group; for effect on infarct size (in words): infusion at late ischemia-early reperfusion
Text: N=6 rats/group. […] Yellow zone within the red is the infarcted area. Red zone is the area-at-risk supplied by the occluded left anterior descending coronary artery. Blue zone is non-risk zone supplied by no-occluded right and circumflex coronary arteries. Infarct size is normalized as the ration of yellow-area/red-area. Acute infarction-reperfusion model consists of 30-minute occlusion of the left anterior descending coronary artery followed by four-hour reperfusion. Infarct-size was quantified at the end of four-hour reperfusion. N=6 rats/group. Inventors used rat MI model (30-min ischemia and 4 h reperfusion). […] The effect of combination therapy on myocyte protection was further assessed in a simulated ischemia-reperfusion model of isolated rat ventricular myocytes (2-hr ischemia and 1-hr reperfusion). […] The mechanisms underlying combination therapy were determined by assessing myocardial PKA and PKC activity in normal rats. […] Experimental Myocardial Ischemia-Reperfusion Model. The rat myocardial ischemia-reperfusion model will be used (Birnbaum et al., 2005; Huang et al., 2007a). This model consists of 30 min coronary artery occlusion followed by 4-hr reperfusion. […] To determine the effect of β1-adrenergic receptor antagonist and the synergistic action of both PKA activator and β1-adrenergic receptor antagonist, esmolol ([…]) will be intravenously infused to rats with or without milrinone. Arterial blood pressure and heart rate will be monitored continuously throughout the experiments. Method for in vivo myocardial infarct study: Following anesthesia and ventilation support, the chest is opened and the left coronary artery encircled with a suture and ligated for 30 min. The snare is then released and myocardium reperfused for 4 hr. The left coronary artery is then reoccluded and Evan's blue dye injected into the right ventricle. The LV is sliced into 6-7 sections. […] The areas of ischemia and necrosis in each slice are determined by planimetry, converted into percentages of the whole for each slice, and multiplied by the weight of the slice.

[2] = system: isolated rat ventricular myocytes; test: simulated ischemia-reperfusion of isolated rat ventricular myocytes (2-hr hypoxia, 1-hr re-oxygenation), myocyte death; type: cell-based
Description: In vitro myocyte ischemia/reperfusion study consists of 2-hour hypoxia followed by 1-hour re-oxygenation. Hypoxia is created by layering mineral oil over the cells. Re-oxygenation is made by removal of the oil. Myocyte death is quantified at the end of 1-hour reperfusion.
(§1) Inventors used rat MI model (30-min ischemia and 4 h reperfusion). […] The effect of combination therapy on myocyte protection was further assessed in a simulated ischemia-reperfusion model of isolated rat ventricular myocytes (2-hr ischemia and 1-hr reperfusion). […] The mechanisms underlying combination therapy were determined by assessing myocardial PKA and PKC activity in normal rats.
To verify that infarct-size reducing or limiting effect is a direct product of PKA activation on myocyte survival but not a secondary effect due to salutatory coronary/systemic hemodynamic alternations, the inventors tested the effect of PKA activation by milrinone on isolated rat ventricular myocytes in primary culture. In vitro myocyte ischemia-reperfusion study consists of 2-hour hypoxia followed by 1-hour re-oxygenation. Hypoxia is created by layering mineral oil over the cells. Re-oxygenation is made by removal of the oil. Myocyte death is quantified at the end of 1-hour reperfusion.

[3] = system: PKA; test: myocardial PKA activity after IV infusion in normal rats; type: in vivo, rat; settings: 10-min tail vein infusion, peaked at 5-min post-infusion, ventricular tissue
Description: as §1

[4] = cited from earlier work
[5] = system: acute myocardial infarction; settings: rat model, administration before the onset of acute myocardial infarction; cited from earlier work
[6] = system: acute myocardial infarction; settings: canine model, administration 30-min after the onset of acute myocardial infarction; cited from earlier work
[7] = milrinone 5 μg/kg/min, esmolol 10 μg/kg/min

CC(C)(C)NCC(O)c1cc(O)cc(O)c1 (centres unmarked) [terbutaline]
effect on infarct size (IS) of single agent (in words) ([1]; CGRP or terbutaline alone, late ischemia-early reperfusion): did not reduce IS | myocyte survival benefit of single agent (in words) ([2]; CGRP or terbutaline alone): no myocyte survival benefit | increase of PKA activity [3]: 30%

Cc1ccc(OCC(O)C(C)NC(C)C)c2c1CCC2 (centres unmarked) [ICI-118551]
increase of infarct size (IS) [1]: 44%

COc1cccc2c1C(=O)c1c(O)c3c(c(O)c1C2=O)C[C@@](O)(C(=O)CO)C[C@@H]3O[C@H]1C[C@H](N)[C@H](O)[C@H](C)O1 [doxorubicin]
incidence of doxorubicin-induced cardiomyopathy ([4]; dose of 501-550 mg/m^2 body surface area, patients): > 5% | incidence of doxorubicin-induced cardiomyopathy ([4]; dose over 550 mg/m^2, patients): 30%

CGRP8-37: CGRP-receptor blocker (VTHRLAGLLSRSGGVVKNNFVPTNVGSKAF; ends and bridges not checked; UniProt P06881 90-119, looked up, fragment)
increase of infarct size (IS) [1]: 36%

COC(=O)CCc1ccc(OCC(O)CNC(C)C)cc1 (centres unmarked) [esmolol]
effect on infarct size (in words) [1, 7]: did not change infarct size

Cc1[nH]c(=O)c(C#N)cc1-c1ccncc1 [milrinone]
infarct-size reduction compared with saline control ([1]; 10-minute infusion from last 5 minutes of 30-minute ischemia to first 5 minutes of four-hour reperfusion, milrinone 5 μg/kg/min, esmolol 10 μg/kg/min, N=6 rats/group): 53±5% | effect on infarct size (in words) [1, 7]: robust infarct-size reduction | milrinone-induced myocyte protection in presence of PKA inhibitor ([2]; cells pretreated with PKA inhibitor Rp-CAMP 100 μmol/L): abolished | reduction of myocyte death compared to saline control ([2]; milrinone 4.7 μmol/L, thirty minutes after the onset of ischemia): 11% | effect on infarct size, given before onset of infarction (preconditioning) [5]: infarct-size reduction | effect on infarct size, given after onset of infarction [6]: no infarct-size reduction
